# PubChem BioAssay (NCI)
#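 48-hour exposure; five concentrations; linearly interpolated endpoints. TGI: concentration producing complete growth inhibition.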
# Tested on: MOLT-4 leukemia
# Experiment: NCI tumour cell line growth inhibition, 48 h
row,Compound,TGI [µM]
1,Nc1ccccc1SC(C[N+](=O)[O-])c1ccc2c(c1)OCO2 (stereo not drawn),6.66

# Tested on: NCI-H226 lung
# Experiment: NCI tumour cell line growth inhibition, 48 h
row,Compound,TGI [µM]
1,O=c1[nH]cc(N=Cc2cc(Cl)cc(Cl)c2O)c(=O)[nH]1,62.1
2,Oc1ccc(-c2nc(-c3cccnc3)c(-c3ccc(F)cc3)[nH]2)cc1,46.8
3,COc1ccc(N2C(=O)C3c4[nH]c5ccccc5c4C4CCC(C(C)(C)C)CC4C3C2=O)c(C)c1 (stereo not drawn),> 100
4,Cc1ccsc1/C=N/Nc1ncccn1,> 100
5,O=C1C(=Cc2ccc(O)cc2)N=C(c2ccccc2)N1n1c(-c2ccccc2)nc2ccccc2c1=O,> 100
6,Nc1ccccc1SC(C[N+](=O)[O-])c1ccc2c(c1)OCO2 (stereo not drawn),32.4

# Tested on: NCI-H23 lung
# Experiment: NCI tumour cell line growth inhibition, 48 h
row,Compound,TGI [µM]
1,O=c1[nH]cc(N=Cc2cc(Cl)cc(Cl)c2O)c(=O)[nH]1,75.3
2,Oc1ccc(-c2nc(-c3cccnc3)c(-c3ccc(F)cc3)[nH]2)cc1,25.5
3,COc1ccc(N2C(=O)C3c4[nH]c5ccccc5c4C4CCC(C(C)(C)C)CC4C3C2=O)c(C)c1 (stereo not drawn),> 100
4,Cc1ccsc1/C=N/Nc1ncccn1,> 100
5,O=C1C(=Cc2ccc(O)cc2)N=C(c2ccccc2)N1n1c(-c2ccccc2)nc2ccccc2c1=O,> 100
6,O=C(O)CSc1ccc([N+](=O)[O-])cc1[N+](=O)[O-],> 100
7,Nc1ccccc1SC(C[N+](=O)[O-])c1ccc2c(c1)OCO2 (stereo not drawn),8.04

# Tested on: NCI-H460 lung
# Experiment: NCI tumour cell line growth inhibition, 48 h
row,Compound,TGI [µM]
1,O=c1[nH]cc(N=Cc2cc(Cl)cc(Cl)c2O)c(=O)[nH]1,> 100
2,Oc1ccc(-c2nc(-c3cccnc3)c(-c3ccc(F)cc3)[nH]2)cc1,63.9
3,COc1ccc(N2C(=O)C3c4[nH]c5ccccc5c4C4CCC(C(C)(C)C)CC4C3C2=O)c(C)c1 (stereo not drawn),> 100
4,O=C(O)CSc1ccc([N+](=O)[O-])cc1[N+](=O)[O-],> 100
5,Nc1ccccc1SC(C[N+](=O)[O-])c1ccc2c(c1)OCO2 (stereo not drawn),4.75

# Tested on: NCI-H522 lung
# Experiment: NCI tumour cell line growth inhibition, 48 h
row,Compound,TGI [µM]
1,O=c1[nH]cc(N=Cc2cc(Cl)cc(Cl)c2O)c(=O)[nH]1,65.3
2,COc1ccc(N2C(=O)C3c4[nH]c5ccccc5c4C4CCC(C(C)(C)C)CC4C3C2=O)c(C)c1 (stereo not drawn),> 100
3,O=C1C(=Cc2ccc(O)cc2)N=C(c2ccccc2)N1n1c(-c2ccccc2)nc2ccccc2c1=O,> 100
4,O=C(O)CSc1ccc([N+](=O)[O-])cc1[N+](=O)[O-],> 100
5,Nc1ccccc1SC(C[N+](=O)[O-])c1ccc2c(c1)OCO2 (stereo not drawn),28.3

# Tested on: NCI/ADR-RES ovarian
# Experiment: NCI tumour cell line growth inhibition, 48 h
row,Compound,TGI [µM]
1,O=c1[nH]cc(N=Cc2cc(Cl)cc(Cl)c2O)c(=O)[nH]1,47.8
2,Oc1ccc(-c2nc(-c3cccnc3)c(-c3ccc(F)cc3)[nH]2)cc1,42.6
3,COc1ccc(N2C(=O)C3c4[nH]c5ccccc5c4C4CCC(C(C)(C)C)CC4C3C2=O)c(C)c1 (stereo not drawn),> 100
4,Cc1ccsc1/C=N/Nc1ncccn1,> 100
5,O=C(O)CSc1ccc([N+](=O)[O-])cc1[N+](=O)[O-],> 100
6,Nc1ccccc1SC(C[N+](=O)[O-])c1ccc2c(c1)OCO2 (stereo not drawn),73

# Tested on: OVCAR-3 ovarian
# Experiment: NCI tumour cell line growth inhibition, 48 h
row,Compound,TGI [µM]
1,O=c1[nH]cc(N=Cc2cc(Cl)cc(Cl)c2O)c(=O)[nH]1,47.1
2,Oc1ccc(-c2nc(-c3cccnc3)c(-c3ccc(F)cc3)[nH]2)cc1,31.1
3,COc1ccc(N2C(=O)C3c4[nH]c5ccccc5c4C4CCC(C(C)(C)C)CC4C3C2=O)c(C)c1 (stereo not drawn),> 100
4,Cc1ccsc1/C=N/Nc1ncccn1,> 100
5,O=C(O)CSc1ccc([N+](=O)[O-])cc1[N+](=O)[O-],> 100
6,Nc1ccccc1SC(C[N+](=O)[O-])c1ccc2c(c1)OCO2 (stereo not drawn),12.4

# Tested on: OVCAR-4 ovarian
# Experiment: NCI tumour cell line growth inhibition, 48 h
row,Compound,TGI [µM]
1,O=c1[nH]cc(N=Cc2cc(Cl)cc(Cl)c2O)c(=O)[nH]1,57.2
2,Oc1ccc(-c2nc(-c3cccnc3)c(-c3ccc(F)cc3)[nH]2)cc1,52.7
3,COc1ccc(N2C(=O)C3c4[nH]c5ccccc5c4C4CCC(C(C)(C)C)CC4C3C2=O)c(C)c1 (stereo not drawn),> 100
4,Cc1ccsc1/C=N/Nc1ncccn1,> 100
5,O=C(O)CSc1ccc([N+](=O)[O-])cc1[N+](=O)[O-],> 100
6,Nc1ccccc1SC(C[N+](=O)[O-])c1ccc2c(c1)OCO2 (stereo not drawn),23.8

# Tested on: OVCAR-5 ovarian
# Experiment: NCI tumour cell line growth inhibition, 48 h
row,Compound,TGI [µM]
1,O=c1[nH]cc(N=Cc2cc(Cl)cc(Cl)c2O)c(=O)[nH]1,> 100
2,Oc1ccc(-c2nc(-c3cccnc3)c(-c3ccc(F)cc3)[nH]2)cc1,68
3,Cc1ccsc1/C=N/Nc1ncccn1,> 100
4,O=C(O)CSc1ccc([N+](=O)[O-])cc1[N+](=O)[O-],> 100
5,Nc1ccccc1SC(C[N+](=O)[O-])c1ccc2c(c1)OCO2 (stereo not drawn),9.85

# Tested on: OVCAR-8 ovarian
# Experiment: NCI tumour cell line growth inhibition, 48 h
row,Compound,TGI [µM]
1,O=c1[nH]cc(N=Cc2cc(Cl)cc(Cl)c2O)c(=O)[nH]1,> 100
2,Oc1ccc(-c2nc(-c3cccnc3)c(-c3ccc(F)cc3)[nH]2)cc1,34.3
3,COc1ccc(N2C(=O)C3c4[nH]c5ccccc5c4C4CCC(C(C)(C)C)CC4C3C2=O)c(C)c1 (stereo not drawn),> 100
4,Cc1ccsc1/C=N/Nc1ncccn1,> 100
5,O=C1C(=Cc2ccc(O)cc2)N=C(c2ccccc2)N1n1c(-c2ccccc2)nc2ccccc2c1=O,> 100
6,O=C(O)CSc1ccc([N+](=O)[O-])cc1[N+](=O)[O-],> 100
7,Nc1ccccc1SC(C[N+](=O)[O-])c1ccc2c(c1)OCO2 (stereo not drawn),11

# Tested on: PC-3 prostate
# Experiment: NCI tumour cell line growth inhibition, 48 h
row,Compound,TGI [µM]
1,O=c1[nH]cc(N=Cc2cc(Cl)cc(Cl)c2O)c(=O)[nH]1,98.3
2,Oc1ccc(-c2nc(-c3cccnc3)c(-c3ccc(F)cc3)[nH]2)cc1,35.2
3,COc1ccc(N2C(=O)C3c4[nH]c5ccccc5c4C4CCC(C(C)(C)C)CC4C3C2=O)c(C)c1 (stereo not drawn),> 100
4,Cc1ccsc1/C=N/Nc1ncccn1,> 100
5,O=C1C(=Cc2ccc(O)cc2)N=C(c2ccccc2)N1n1c(-c2ccccc2)nc2ccccc2c1=O,> 100
6,O=C(O)CSc1ccc([N+](=O)[O-])cc1[N+](=O)[O-],> 100
7,Nc1ccccc1SC(C[N+](=O)[O-])c1ccc2c(c1)OCO2 (stereo not drawn),20.6

# Tested on: RPMI-8226 leukemia
# Experiment: NCI tumour cell line growth inhibition, 48 h
row,Compound,TGI [µM]
1,O=c1[nH]cc(N=Cc2cc(Cl)cc(Cl)c2O)c(=O)[nH]1,70.6
2,Oc1ccc(-c2nc(-c3cccnc3)c(-c3ccc(F)cc3)[nH]2)cc1,39.8
3,COc1ccc(N2C(=O)C3c4[nH]c5ccccc5c4C4CCC(C(C)(C)C)CC4C3C2=O)c(C)c1 (stereo not drawn),> 100
4,Cc1ccsc1/C=N/Nc1ncccn1,> 100
5,O=C1C(=Cc2ccc(O)cc2)N=C(c2ccccc2)N1n1c(-c2ccccc2)nc2ccccc2c1=O,> 100
6,O=C(O)CSc1ccc([N+](=O)[O-])cc1[N+](=O)[O-],> 100
7,Nc1ccccc1SC(C[N+](=O)[O-])c1ccc2c(c1)OCO2 (stereo not drawn),4.42

# Tested on: RXF 393 renal
# Experiment: NCI tumour cell line growth inhibition, 48 h
row,Compound,TGI [µM]
1,O=c1[nH]cc(N=Cc2cc(Cl)cc(Cl)c2O)c(=O)[nH]1,> 100
2,Oc1ccc(-c2nc(-c3cccnc3)c(-c3ccc(F)cc3)[nH]2)cc1,33.9
3,COc1ccc(N2C(=O)C3c4[nH]c5ccccc5c4C4CCC(C(C)(C)C)CC4C3C2=O)c(C)c1 (stereo not drawn),> 100
4,Cc1ccsc1/C=N/Nc1ncccn1,> 100
5,O=C(O)CSc1ccc([N+](=O)[O-])cc1[N+](=O)[O-],> 100
6,Nc1ccccc1SC(C[N+](=O)[O-])c1ccc2c(c1)OCO2 (stereo not drawn),3.33

# Tested on: SF-268 CNS
# Experiment: NCI tumour cell line growth inhibition, 48 h
row,Compound,TGI [µM]
1,O=c1[nH]cc(N=Cc2cc(Cl)cc(Cl)c2O)c(=O)[nH]1,47.4
2,Oc1ccc(-c2nc(-c3cccnc3)c(-c3ccc(F)cc3)[nH]2)cc1,49.8
3,COc1ccc(N2C(=O)C3c4[nH]c5ccccc5c4C4CCC(C(C)(C)C)CC4C3C2=O)c(C)c1 (stereo not drawn),> 100
4,Cc1ccsc1/C=N/Nc1ncccn1,> 100
5,O=C1C(=Cc2ccc(O)cc2)N=C(c2ccccc2)N1n1c(-c2ccccc2)nc2ccccc2c1=O,> 100
6,O=C(O)CSc1ccc([N+](=O)[O-])cc1[N+](=O)[O-],> 100
7,Nc1ccccc1SC(C[N+](=O)[O-])c1ccc2c(c1)OCO2 (stereo not drawn),20.7

# Tested on: SF-295 CNS
# Experiment: NCI tumour cell line growth inhibition, 48 h
row,Compound,TGI [µM]
1,O=c1[nH]cc(N=Cc2cc(Cl)cc(Cl)c2O)c(=O)[nH]1,96.1
2,Oc1ccc(-c2nc(-c3cccnc3)c(-c3ccc(F)cc3)[nH]2)cc1,32
3,COc1ccc(N2C(=O)C3c4[nH]c5ccccc5c4C4CCC(C(C)(C)C)CC4C3C2=O)c(C)c1 (stereo not drawn),> 100
4,Cc1ccsc1/C=N/Nc1ncccn1,> 100
5,O=C1C(=Cc2ccc(O)cc2)N=C(c2ccccc2)N1n1c(-c2ccccc2)nc2ccccc2c1=O,> 100
6,O=C(O)CSc1ccc([N+](=O)[O-])cc1[N+](=O)[O-],> 100
7,Nc1ccccc1SC(C[N+](=O)[O-])c1ccc2c(c1)OCO2 (stereo not drawn),18.8

# Tested on: SF-539 CNS
# Experiment: NCI tumour cell line growth inhibition, 48 h
row,Compound,TGI [µM]
1,O=c1[nH]cc(N=Cc2cc(Cl)cc(Cl)c2O)c(=O)[nH]1,43.6
2,COc1ccc(N2C(=O)C3c4[nH]c5ccccc5c4C4CCC(C(C)(C)C)CC4C3C2=O)c(C)c1 (stereo not drawn),> 100
3,O=C1C(=Cc2ccc(O)cc2)N=C(c2ccccc2)N1n1c(-c2ccccc2)nc2ccccc2c1=O,> 100
4,Nc1ccccc1SC(C[N+](=O)[O-])c1ccc2c(c1)OCO2 (stereo not drawn),4.98

# Tested on: SK-MEL-2 melanoma
# Experiment: NCI tumour cell line growth inhibition, 48 h
row,Compound,TGI [µM]
1,O=c1[nH]cc(N=Cc2cc(Cl)cc(Cl)c2O)c(=O)[nH]1,41.6
